# According to patent US20140155361A1, “METHOD FOR TREATING LUNG DISEASE” (Duke University, priority 2010, published 2014):
# Assays:
# [1] = tested on: NQO1 deficient and C57BL/6 mice; assay: elastase (PPE) model of emphysema with oral NAC; assay type: in vivo, mouse
# Source text: (§1) C57BL/6J mice were purchased from Jackson Laboratories (Bar Harbor, Me.) to be used as controls. A breeding colony was established at Duke University from breeding pairs of NQO1 deficient mice (backcrossed 16 generations on a C57BL/6 background) that were generously provided by Dr. Frank Gonzalez at the National Cancer Institute (Bethesda, Md.) (Radjendirane et al. J. Biol. Chem. 1998; 273:7382-7389). Male C57BL/6 or NQO1 deficient mice were used at one, two, four and six months of age. Experimental protocols were approved by the Institutional Animal Care and Use Committee at Duke University Medical Center and were performed in accordance with the standards established by the U.S. Animal Welfare Act.
# At two months of age, WT and NQO1 deficient mice were treated with porcine pancreatic elastase (PPE, Sigma Aldrich, St. Louis Mo.) or saline by oropharyngeal aspiration. Briefly, immediately after inhalational anesthesia with 3% isoflurane (IsoFlo from Abbott Laboratories and Open-Circuit Gas Anesthesia System from Stoelting), animals were suspended by their upper incisors on a 60° incline board, and a liquid volume of PPE [25 μg/50 μL saline] or saline alone was delivered by oropharyngeal aspiration. Thirteen days post, the mice were phenotyped by flexiVent for pulmonary mechanics and lavage to collect bronchoalveolar lavage fluid (Foster et al. J Appl Physiol 2001; 90:1111-1117).
# (§2) N-acetyl cysteine (Sigma Aldrich, St. Louis Mo.) was dissolved in the mouse water at a concentration of 2 mg/mL (March et al. Toxicol. Sci. 2006; 92:545-559). The water was changed every two days to prevent oxidation of the NAC. Mice were given NAC in their water for one week before LPS/Saline or PPE/Saline treatment and remained on the NAC water until phenotyping.
# (§3) For the mice that underwent pulmonary function tests, the procedure required approximately five minutes per mouse from the point at which the mouse was administered anesthetic and prepared for surgery until the conclusion of pulmonary function measurements and euthanasia. Mice were anesthetized (60 mg/kg Nembutal) and surgically prepared with a tracheal cannula and then placed on a computer-controlled ventilator (flexiVent, SCIREQ, Montreal, Canada) at a constant tidal volume of 7.5 mL/kg and a […] of 3 cm H2O. The animals were then given a neuromuscular blockade (0.8 mg/kg Pancuronium Bromide, Sigma-Aldrich) and given three minutes to adjust to the ventilator. Pressure-volume curves were generated by slow stepwise (ramp) inflation to total lung capacity and deflation back to […] residual capacity (Lovgren et al. Am. J. Physiol. 2006; 291:L144-156). The static compliance measurements were calculated from the pressure volume curves ([…]).
# (§4) Alveolar surface density (ASD) was calculated as previously described (Auten et al. Am. J. Physiol. 2001; 281:L336-344). Briefly, ten digital images of parenchymal architecture from each mouse were captured at 40× magnification were chosen (omitting large vascular and bronchiolar structures) from 5 μm thick sections of paraffin embedded, formalin-fixed mouse lung that were stained with hematoxylin and eosin (H&E stain, AML Laboratories, Rosedale, Md.). Five random fields were chosen (omitting large vascular and bronchiolar structures) and images were overlaid with an 11°-11 point grid (Metamorph; Universal Imaging, West Chester, Pa.) for point (P) and intercept (I) counting of the alveolar septa. Alveolar volume density was calculated from Palveoli/Pparenchyma and alveolar surface density from 2Ialveoli/LT, where LT was the test line length within the lung parenchyma.
# [2] = tested on: NQO1 deficient and C57BL/6 mice; assay: LPS-induced murine emphysema with oral NAC; assay type: in vivo, mouse
# Source text: as §1
# LPS (Sigma Aldrich, St Louis Mo.) was reconstituted with sterile saline and added for a dose of 5 μg/m^3. At one month of age, mice were placed in stainless steel wire cage exposure racks in a 20-L plexiglass chamber and exposed to aerosolized LPS for 2.5 hours. LPS solution was aerosolized with a 6-jet atomizer (TSI) with all output directed to the exposure chamber. Filtered air was supplied to the atomizer at 30-psi gauge pressure (Brass et al. Am. J. Resp. Cell. Mol. 2008; 39:584-590). Mice were then returned to their cages. The mice were exposed every other day for a total of three exposures and then given four weeks to recover.
# as §2, §3
# as §4, with “Five random fields were chosen (omitting large vascular and bronchiolar structures) and images were overlaid with an 11°-11 point grid (Metamorph; Universal Imaging, West Chester, Pa.) for point (P) and intercept (I) counting of the alveolar septa.” left out, “parenchyma. […]” for “parenchyma.”
# [3] = target: T1, human DNA Topoisomerase I (Homo sapiens, UniProt P11387); conditions: cited from earlier work
# T1 sequence (P11387 1-765): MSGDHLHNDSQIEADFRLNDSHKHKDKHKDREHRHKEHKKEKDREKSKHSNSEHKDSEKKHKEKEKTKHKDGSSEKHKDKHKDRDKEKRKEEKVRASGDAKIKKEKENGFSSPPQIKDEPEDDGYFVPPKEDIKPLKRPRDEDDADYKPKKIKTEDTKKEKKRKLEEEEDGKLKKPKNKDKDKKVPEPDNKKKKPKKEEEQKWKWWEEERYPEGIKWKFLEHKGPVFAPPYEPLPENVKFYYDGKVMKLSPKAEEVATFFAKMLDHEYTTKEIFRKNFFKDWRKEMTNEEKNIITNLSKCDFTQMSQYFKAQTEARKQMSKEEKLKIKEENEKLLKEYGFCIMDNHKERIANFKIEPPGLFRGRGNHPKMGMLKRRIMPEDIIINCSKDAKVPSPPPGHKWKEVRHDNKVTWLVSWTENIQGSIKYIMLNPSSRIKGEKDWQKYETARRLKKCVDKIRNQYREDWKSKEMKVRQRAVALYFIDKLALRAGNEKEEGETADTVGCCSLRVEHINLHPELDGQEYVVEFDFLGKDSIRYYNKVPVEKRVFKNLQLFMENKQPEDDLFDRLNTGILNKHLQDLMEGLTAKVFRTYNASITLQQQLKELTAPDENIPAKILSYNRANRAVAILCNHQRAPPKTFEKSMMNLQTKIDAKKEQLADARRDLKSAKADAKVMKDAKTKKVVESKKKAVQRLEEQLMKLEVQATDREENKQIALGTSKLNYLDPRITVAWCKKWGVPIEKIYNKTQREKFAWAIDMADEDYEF
# [4] = tested on: human DNA Topoisomerase II; conditions: cited from earlier work
# [5] = tested on: mouse alveolar macrophage cell line (MHS cells); assay: oxidative stress in macrophage cell line after NQO1 inhibitor or inducer pretreatment and LPS or PMA challenge; assay type: cell-based; conditions: pretreated 4 hours (100 nM MAC220 or 5-10 μM β-lapachone), then PMA or LPS 2 hours, supernatant
# Protocol: Murine alveolar macrophage cell line (MH-S cell) purchased from ATCC (Manassas, Va.) was used for in vitro NQO1 blocking and inducing assays. Cells were cultured in RPMI1640 medium supplemented with 10% heat-inactivated fetal bovine serum, 2 mM L-glutamine, penicillin (100 U/ml), streptomycin (100 μg/ml), and 10 mM HEPES. To determine the role of NQO1 in macrophage response to LPS or PMA, cells at 80-90% confluence were pretreated with 10 μM of dicumerol for 1 hour, 100 nM of MAC220 or 5-10 μM of β-lapachone for 4 hours, and then were challenged by 20 ng/ml of LPS or 1 μM of PMA. Cell culture supernatants were collected after 2 hour incubation. Same volume of DMSO and PBS were used as vehicle control.
# human cancer cell lines = conditions: single agent, read-out: antineoplastic activity (IC50); cited from earlier work
# [6] = BALF, NQO1 and WT mice given NAC prior to elastase challenge
# [7] = NQO1 deficient mice, oral NAC in water + elastase vs elastase only
# [8] = LPS treated NQO1 deficient mice compared to LPS+NAC NQO1 deficient mice
Compound,"8-isoprostane levels [1, 6]","protein carbonyls [1, 6]","Glutathione measurements in the BAL ([1]; NQO1 deficient mice treated with NAC, elastase model)","lung compliance [1, 7]","pressure-volume measurements [1, 7]","neutrophils in BALF ([1]; PPE only group compared to the PPE+NAC group, NQO1 deficient and C57BL/6 mice)",mean line intercepts ([1]; PPE+NAC vs PPE groups),surface alveolar density ([1]; PPE+NAC vs PPE groups),"8-isoprostane concentrations in the BALF [2, 8]","protein carbonyls in the BALF [2, 8]","polymorphonuclear leukocytes, share of BALF cells ([2]; LPS+NAC treated NQO1 deficient mice (LPS only: 5-9%))","Glutathione measurements in the BAL ([2]; NQO1 deficient mice treated with NAC, LPS model)","static compliance ([2]; NQO1 deficient mice, LPS + NAC vs LPS)",in vitro inhibition of human DNA Topoisomerase I [3],in vitro inhibition of human DNA Topoisomerase II [4],oxidative stress level [5],IC50 (human cancer cell lines) [µM]
"CC(=O)N[C@@H](CS)C(=O)O [NAC, N-acetyl cysteine]",reduction,reduction,increased concentrations,partially attenuated,partially attenuated,significant increase,complete abrogation of the elastase effect,complete abrogation of the elastase effect,significant increase,significant increase,1-4%,increased concentrations,attenuated,,,,
"CC1(C)CCC2=C(O1)c1ccccc1C(=O)C2=O [β-lapachone, 3,4-dihydro-2,2-dimethyl-2H-naphtho[1,2-b]pyran-5,6-dione]",,,,,,,,,,,,,,potent in vitro inhibition,potent in vitro inhibition,dose response decrease,1 to 10
